In ChEMBL document CHEMBL3580555, “Design, Synthesis, and Biological Evaluation of Novel Imidazo[1,2-a]pyridine Derivatives as Potent c-Met Inhibitors” (ACS Med Chem Lett, 2015):

Legend:
[1] = Antiproliferative activity against human EBC1 cells after 72 hrs; settings: EBC-1, 72 h
[2] = Antiproliferative activity against human MKN45 cells after 72 hrs; assay type: functional, cell-based; settings: MKN-45, 72 h
[3] = Antiproliferative activity against human SNU5 cells after 72 hrs; assay type: functional, cell-based; settings: SNU-5, 72 h
BaF3 = assay: Antiproliferative activity against mouse BAF3/TPR-Met cells after 72 hrs; assay type: functional, cell-based; settings: BaF3, 72 h
[4] = target: Hepatocyte growth factor receptor (Homo sapiens) (UniProt P08581); assay: Inhibition of C-Met (unknown origin) using polu (Glu,Tyr)4:1 substrate at 100 uM after 30 mins incubation by multi-well spectrophotometry
[5] = target: Hepatocyte growth factor receptor (Homo sapiens) (UniProt P08581); assay: Inhibition of C-Met (unknown origin) using polu (Glu,Tyr)4:1 substrate at 1 uM after 30 mins incubation by multi-well spectrophotometry

Sequence of Hepatocyte growth factor receptor (Homo sapiens) (P08581 whole entry): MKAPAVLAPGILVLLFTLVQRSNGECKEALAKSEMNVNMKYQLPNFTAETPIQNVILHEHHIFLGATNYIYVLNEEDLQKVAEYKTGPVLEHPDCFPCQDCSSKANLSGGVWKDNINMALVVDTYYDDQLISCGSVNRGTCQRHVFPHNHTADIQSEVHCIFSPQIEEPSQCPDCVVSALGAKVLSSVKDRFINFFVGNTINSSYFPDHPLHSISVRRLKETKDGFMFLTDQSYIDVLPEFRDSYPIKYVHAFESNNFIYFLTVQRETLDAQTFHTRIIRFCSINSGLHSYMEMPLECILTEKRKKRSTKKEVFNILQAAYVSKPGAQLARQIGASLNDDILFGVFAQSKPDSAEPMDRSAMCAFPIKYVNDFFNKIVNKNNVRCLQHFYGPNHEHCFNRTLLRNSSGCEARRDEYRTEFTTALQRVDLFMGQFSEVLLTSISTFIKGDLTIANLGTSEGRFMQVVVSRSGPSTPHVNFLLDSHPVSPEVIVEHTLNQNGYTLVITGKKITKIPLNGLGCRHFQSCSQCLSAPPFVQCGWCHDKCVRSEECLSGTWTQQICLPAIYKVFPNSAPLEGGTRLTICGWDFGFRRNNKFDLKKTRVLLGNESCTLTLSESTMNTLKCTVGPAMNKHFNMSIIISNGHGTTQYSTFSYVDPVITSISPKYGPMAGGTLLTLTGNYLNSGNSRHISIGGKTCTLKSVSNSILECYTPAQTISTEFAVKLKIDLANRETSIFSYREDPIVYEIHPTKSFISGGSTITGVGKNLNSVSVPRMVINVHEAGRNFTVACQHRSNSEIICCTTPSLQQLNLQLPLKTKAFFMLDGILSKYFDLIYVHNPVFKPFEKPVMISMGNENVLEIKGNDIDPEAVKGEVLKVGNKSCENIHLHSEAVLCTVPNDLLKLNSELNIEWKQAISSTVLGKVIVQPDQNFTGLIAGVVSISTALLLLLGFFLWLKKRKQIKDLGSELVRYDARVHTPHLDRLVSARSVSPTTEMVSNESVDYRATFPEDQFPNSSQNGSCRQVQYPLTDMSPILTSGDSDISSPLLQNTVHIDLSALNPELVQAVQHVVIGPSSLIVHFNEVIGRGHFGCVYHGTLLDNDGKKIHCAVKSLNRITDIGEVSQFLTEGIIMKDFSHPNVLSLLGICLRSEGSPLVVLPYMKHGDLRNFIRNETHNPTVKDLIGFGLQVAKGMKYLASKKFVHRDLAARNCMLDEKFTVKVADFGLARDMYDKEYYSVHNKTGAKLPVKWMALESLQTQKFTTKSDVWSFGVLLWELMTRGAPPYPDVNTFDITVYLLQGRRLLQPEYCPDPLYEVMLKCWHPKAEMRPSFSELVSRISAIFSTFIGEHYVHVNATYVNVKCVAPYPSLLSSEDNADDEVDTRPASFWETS

Row | Compound | IC50 [1] [nM] | other results
1 | O=C(NCC1CCCCN1)c1ccc(-c2cc(F)c3ncc(Cc4ccc5ncccc5c4)n3c2)cc1F (stereo not given) | 277 | 
2 | O=C(c1ccc(-c2cc(F)c3ncc(Cc4ccc5ncccc5c4)n3c2)cc1F)N1CCC2(COC2)C1 | 406 | 
3 | CN(C)CCNC(=O)c1ccc(-c2cc(F)c3ncc(Cc4ccc5ncccc5c4)n3c2)cc1F | 49 | 
4 | Fc1cc(-c2ccsc2)cn2c(Cc3ccc4ncccc4c3)cnc12 | 444 | 
5 | CN1CCN(C(=O)c2ccc(-c3cc(F)c4ncc(Cc5ccc6ncccc6c5)n4c3)cc2F)CC1 | 869 | 
6 | O=C(NC1CCOCC1)c1ccc(-c2cc(F)c3ncc(Cc4ccc5ncccc5c4)n3c2)cc1F | 70.5 | 
7 | Fc1cc(F)cc(-c2cc(F)c3ncc(Cc4ccc5ncccc5c4)n3c2)c1 | 790 | 
8 | O=C(NCCCN1CCCC1)c1ccc(-c2cc(F)c3ncc(Cc4ccc5ncccc5c4)n3c2)cc1F | 161 | 
9 | C[C@@H](Oc1cc(-c2cnn(C3CCNCC3)c2)cnc1N)c1c(Cl)ccc(F)c1Cl [CRIZOTINIB] | 21.8 | IC50 [2]: 38.1 nM; IC50 [3]: 20.4 nM; IC50 (BaF3): 127 nM
10 | Cn1cc(-c2cn3c(Cc4ccc5ncccc5c4)cnc3cc2C#N)cn1 |  | inhibition [4]: 33.3%
11 | OCCn1cc(-c2cc(F)c3ncc(Cc4ccc5ncccc5c4)n3c2)cn1 | 340 | 
12 | Fc1cc(-c2cnn(C3CCNCC3)c2)cn2c(Cc3ccc4ncccc4c3)cnc12 | 1460 | 
13 | N#Cc1cccc(-c2cc(F)c3ncc(Cc4ccc5ncccc5c4)n3c2)c1 | 107 | 
14 | CCO/N=C(\C)c1cc(F)c2ncc(Cc3ccc4ncccc4c3)n2c1 | 1480 | 
15 | CNC(=O)c1ccc(-c2cc(F)c3ncc(Cc4ccc5ncccc5c4)n3c2)cc1OC | 59.6 | 
16 | N#Cc1ccc(-c2cc(F)c3ncc(Cc4ccc5ncccc5c4)n3c2)cc1F | 145 | 
17 | Cn1cc(-c2cn3c(Cc4ccc5ncccc5c4)cnc3cc2Cl)cn1 |  | inhibition [5]: 24.5%
